{
  "source": "patent US20120107323A1",
  "about": "“KINASE PROTEIN BINDING INHIBITORS” (University of Florida, priority 2009, published 2012)",
  "key": {"C8161 melanoma cells [1]": {"system": "C8161 melanoma cells", "assay": "Detachment assay, C8161 cells", "type": "cell-based, human", "details": "C8161, 5 μM, 72 h", "procedure": "In detachment assays, detached and attached cells were harvested separately and counted in a hemocytometer. The percentage of detachment was calculated by dividing the number of detached cells by the total number of cells.\n(§1) Detachment assay: Cells were plated with and without compound for 24, 48, and 72 h, and detached and attached cells were counted in a hemocytometer. The percent of detachment was calculated by dividing the number of detached cells by the total number of cells and experiments performed in triplicate. Apoptosis assays: After treatment, attached and detached cells were collected, counted and prepared for terminal uridine deoxynucleotidyl transferase (TUNEL) assay by utilizing an APO-BRDU kit (BD Pharmingen, San Diego, Calif.) and cells analyzed with a FACSCalibur cytometer (Becton Dickinson, San Jose, Calif.). In addition, apoptotic cells were analyzed with Hoechst 33342 staining (1 μg/ml). The percent of apoptotic cells was calculated as the ratio of apoptotic cells to total number of cells."}, "SK-MEL-28 melanoma cells": {"system": "SK-MEL-28 melanoma cells", "assay": "Cell viability (MTT), SK-MEL-28", "type": "cell-based", "details": "Homo sapiens; SK-MEL-28, 72 hours; read-out: IC50 of INT2-31, cell viability", "procedure": "Cell viability (MTT) and CFSE Proliferation assay: Cells were plated in 96-well plates and let adhere overnight. After cell treatment, cell viability was measured by 3-(4,5-dimethylthiazol-2-yl)-2,5-diphenyl tetrazolium bromide (MTT) assay (CellTiter 96® Aqueous, Promega, Madison, Wis.).\nCell viability and detachment assays: After cells were treated with siRNA transfection, cell viability was measured by 3-(4,5-dimethylthiazol2-yl)-2,5-diphenyl tetrazolium bromide (MTT) assay (CellTiter 96® AQueous, Promega, Madison, Wis.). Briefly, 20 μl of the tetrazolium compound was added to each well. The cells were then incubated at 37° C. for 1 h. The plate was read at 490 nm with a plate reader to determine the viability. In detachment assays, detached and attached cells were harvested separately and counted in a hemocytometer. The percentage of detachment was calculated by dividing the number of detached cells by the total number of cells. Apoptosis assays: After treatment, attached and detached cells were collected, counted and prepared for terminal uridine deoxynucleotidyl transferase (TUNEL) assay by utilizing an APO-BRDU kit (BD Pharmingen, San Diego, Calif.) according to the manufacturer's instructions. Stained cells were analyzed with a fluorescence-activated cell sorting-Calibur flow cytometer (BD Biosciences). […] Apoptotic cells were also analyzed by Hoechst staining. […]"}, "FAK": {"molecular_target": "FAK (Homo sapiens, UniProt Q05397)", "sequence (Q05397 whole entry)": "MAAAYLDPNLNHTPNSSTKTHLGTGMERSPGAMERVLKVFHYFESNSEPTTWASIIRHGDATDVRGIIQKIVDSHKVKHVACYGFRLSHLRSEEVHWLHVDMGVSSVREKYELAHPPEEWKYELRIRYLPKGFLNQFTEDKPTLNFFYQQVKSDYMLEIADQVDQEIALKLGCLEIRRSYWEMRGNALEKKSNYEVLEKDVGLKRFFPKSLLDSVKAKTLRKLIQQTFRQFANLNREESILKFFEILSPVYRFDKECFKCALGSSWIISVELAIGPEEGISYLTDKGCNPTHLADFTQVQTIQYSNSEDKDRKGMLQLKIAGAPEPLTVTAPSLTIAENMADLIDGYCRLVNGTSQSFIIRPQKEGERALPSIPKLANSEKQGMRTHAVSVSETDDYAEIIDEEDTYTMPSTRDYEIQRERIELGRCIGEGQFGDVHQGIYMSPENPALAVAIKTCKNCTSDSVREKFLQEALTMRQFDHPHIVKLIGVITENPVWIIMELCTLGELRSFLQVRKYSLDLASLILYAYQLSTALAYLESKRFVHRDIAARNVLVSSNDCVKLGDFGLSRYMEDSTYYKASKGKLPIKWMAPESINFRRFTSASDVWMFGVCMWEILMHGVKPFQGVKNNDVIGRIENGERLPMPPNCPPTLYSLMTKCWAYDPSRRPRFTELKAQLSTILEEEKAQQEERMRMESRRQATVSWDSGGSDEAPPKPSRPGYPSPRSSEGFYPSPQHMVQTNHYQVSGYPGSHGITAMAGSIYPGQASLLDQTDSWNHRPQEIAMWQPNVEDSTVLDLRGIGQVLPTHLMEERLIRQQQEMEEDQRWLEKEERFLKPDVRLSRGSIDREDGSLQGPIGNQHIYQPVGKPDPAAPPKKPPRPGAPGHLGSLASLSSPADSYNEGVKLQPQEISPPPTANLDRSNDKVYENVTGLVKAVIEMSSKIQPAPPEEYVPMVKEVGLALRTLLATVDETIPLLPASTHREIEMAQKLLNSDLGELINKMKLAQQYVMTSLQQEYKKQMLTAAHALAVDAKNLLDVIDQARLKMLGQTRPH", "assay": "Kinase profiler screening, FAK", "type": "biochemical", "details": "1 μM compound, 10 μM ATP", "procedure": "Kinase Profiler Screening: Kinase specificity screening was performed with Invitrogen's SelectScreen® Kinase Profiling Services http://www.invitrogen.com/site/us/en/home/Products-and-Services/Services/Discoverv-Research/SelectScreen-Profiling-Service/SelectScreen-Kinase-Profiling-Service.html. The screening was performed with 1 μM compound, INT2-31, 10 μM ATP, and kinase substrates against ten recombinant kinases according to Z′-LYTET™ Kinase Assay. For PI3 kinase activity, 100 μM ATP, and kinase substrate were utilized with the Invitrogen Adapta® Universal Kinase Assay protocol. Tumor Growth in Nude Mice in vivo: Six week old athymic, female nude mice were purchased from Harlan Laboratory. The mice were maintained in the animal facility, and all experiments were performed in compliance with NIH animal-use guidelines and under an IACUC approved protocol. Melanoma cells were injected, 5×10^6 cells, subcutaneously. When the tumor size reached 100 mm^3, the INT2-31 was introduced by intraperitoneal injection at a dose of 15 mg/kg daily for 21 days. Tumor diameters were measured with calipers, and tumor volume in mm^3 was calculated using the formula [(width)^2×length]/2. At the end of experiment, tumor weight and volume were determined."}, "C8161 melanoma cells [2]": {"system": "C8161 melanoma cells", "assay": "Apoptosis by Hoechst staining", "type": "cell-based, human", "details": "5 μM, 72 h", "procedure": "as §1\nIn addition, apoptotic cells were also analyzed by Hoechst staining. To the prepared cells as described above, Hoechst 33342 (1 μg/ml) was added, incubated in the dark room temperature for 10 minutes, and the specimens were mounted on glass coverslips. The slides were viewed under the Zeiss microscope for apoptotic nuclei. The percent of apoptotic cells was calculated as the ratio of apoptotic cells to total number of cells. Over 300 cells per sample were analyzed."}, "C8161 melanoma cells [3]": {"system": "C8161 melanoma cells", "assay": "CFSE cell proliferation assay, C8161", "type": "cell-based, human", "details": "effect greater than in A375", "procedure": "For staining with CFSE (Molecular Probes, Eugene, Oreg.)., 1×10^7/ml cells were suspended in PBS and incubated at 37° C. for 5 min with the 10 μM of CFSE. Stained cells were cultured with medium alone or with inhibitor for 24, 48, and 72 hours, fixed and analyzed by a FACS Calibur cytometer (Becton Dickinson, San Jose, Calif.)."}},
  "data": [
    {"smiles": "CSc1ncnc2c1ccn2C1O[C@H](COP(=O)(O)O)[C@@H](O)[C@H]1O", "note": "(stereo partly drawn) [INT2-31, 4-(Methylthio)-7-(5-O-phosphono-D-ribofuranosyl)-{7H-Pyrrolo[2,3-d]pyrimidine}]", "values": [
      {"measurement": "cells detached from the plate", "setting": "C8161 melanoma cells [1]", "result": 7, "unit": "%"},
      {"measurement": "IC50", "setting": "SK-MEL-28 melanoma cells", "result": 22.1, "unit": "µM"},
      {"measurement": "kinase activity of FAK", "setting": "FAK", "result": "did not inhibit"},
      {"measurement": "induction of apoptosis, Hoescht positive cells", "setting": "C8161 melanoma cells [2]", "result": "greater than 50%"},
      {"measurement": "cell proliferation (CSFE)", "setting": "C8161 melanoma cells [3]", "result": "inhibited cell proliferation"}
    ]}
  ]
}
